Laboratory results reported in publication PMC10574143, “Exploring the Solubility Limits of Edaravone in Neat Solvents and Binary Mixtures: Experimental and Machine Learning Study” (Molecules, 2023).

Columns and labels:
[1] = solubility data curation, three-parameter van't Hoff consensus; type: physicochemical; settings: methanol, van't Hoff fit to data of refs 21, 26
From the text: The dataset characterizing edaravone solubility is an accumulation of values collected from available literature sources augmented with a series of new measurements reported in this paper, which are summarized in Supplementary Section S1. There are three accounts documenting the temperature-dependent solubility of the titled compound in fifteen neat solvents including alcohols, esters, some aprotic solvents, and water. Moreover, nine binary solvent mixtures were used for EDA dissolution measurements at a range of temperatures with a variety of binary compositions. […] First of all, one can notice serious divergences in the reported solubility values for some systems. This inconsistency prohibits the direct use of such a collection for the training of models due to the inherent noise in the dataset, which is a frequently occurring problem intrinsic to diverse measurement protocols. […] Secondly, the solubility space is not represented uniformly due to different numbers of measurements for dissimilar temperature ranges and concentrations of solvent mixtures, which might overrepresent those systems studied more extensively in the dataset. Finally, the main focus in solubility determination was narrowed to polar protic solvents, with very limited representation of non-protic or diprotic solvents. To address the first two issues, the final collection was cured using commonly accepted model equations by fitting their parameters based on experimental mole fractions. Here, the three-parameter van’t Hoff and Jouyban–Acree equations were used for neat and binary solvents, respectively. In addition, temperature standardization was performed for a uniform representation of solubility in the final dataset. […] The complete list of experimental solubility data is provided in the Supporting Materials (see Section S2). As can be directly inferred from the plots presented in Figure 1, incongruences appear not only in the solubility values but also in their temperature trends. […] Since only an arbitrary decision would allow the rejection of either of the measurement series, the final solubility dataset was constructed based on the predictions of the van’t Hoff equation, parametrized using all available experimental data. Moreover, temperature normalization was adopted by accepting data between 0 °C and 50 °C with 5 °C intervals. […] Fortunately, the majority of saturated EDA systems studied suffered experimentally from much smaller deviations, as detailed in the Supplementary Materials (see Section S2.1), and the ones presented in Figure 1 show the worst extremes.
The datasets used for model development underwent curing and unification. All solubility data in neat solvents were analyzed using a simple thermodynamic model relying on the fundamental van’t Hoff equation extended for the temperature dependence of the equilibrium constant by a polynomial fit. The following equation (1) lnxEcur=A+B/T+C/T^2 has three adjustable parameters, the values of which were computed by minimizing root mean square deviations (RMSD) between experimental and computed values. The collection of obtained parameter values for all analyzed systems (including literature data), along with graphical illustrations, is provided in the Supplementary Materials (see Section S2, Table S3 and Figure S2).

[2] = poor aqueous solubility; no reference given; cited from earlier work

log(x1consensus) ([1]; x2*=1.00, 0 °C): -1.93
log(x1consensus) ([1]; x2*=1.00, 5 °C): -1.87
log(x1consensus) ([1]; x2*=1.00, 10 °C): -1.80
log(x1consensus) ([1]; x2*=1.00, 15 °C): -1.73
log(x1consensus) ([1]; x2*=1.00, 20 °C): -1.66
SMILES: CC1=NN(c2ccccc2)C(=O)C1 [Edaravone, 5-methyl-2-phenyl-4H-pyrazol-3-one]
Biopharmaceutics Classification System (BCS) category [2]: Class IV
